Results from patent publication US6570006B1, “Bacterial gene and method of treating a gram negative bacterial infection” (priority 1998, dated 2003).
In brackets after ≈: the same amount, converted by molar mass. Entries after “also recorded” stand apart in the source; their conditions may differ. Read-outs that look alike come from different tables or passages of the source.

Key:
[1] = system: CWG312 (F470 with a waaY::aacC1 insertion); experiment: SDS and novobiocin sensitivity testing (MIC), waaY mutant; format: cell-based, Escherichia coli; details: for MIC / sensitivity compared with F470 (in words): strain CWG312 (waaY) versus F470 parent
Protocol: (§1) Bacterial Strains and Growth Conditions—E. coli F470 is an R-LPS derivative of an O8:K27 strain (Schmidt, G. et al, 1969), and serves as the prototype for R1 core OS studies. Derivatives of F470 used in this study include CWG296 (F470 with a waaP::aacC1 insertion), CWG297 (F470 with a waaQ::aacC1 insertion), and CWG312 (F470 with a waaY::aacC1 insertion). Bacteria were grown in Luria-Bertani (LB) broth at 37° C. Growth media were supplemented with ampicillin (100 μg/mL), gentamicin (15 μg/mL), or chloramphenicol (30 μg/mL) when necessary.
(§2) Sodium dodecyl sulfate (SDS) and Novobiocin Sensitivity Testing—Two-fold serial dilutions of SDS (200→0.1 mg/mL) and novobiocin (200→1.6 μg/mL) were made in 5 mL volumes of LB. Each series of tubes was point inoculated from an overnight culture of the strain to be tested, and then incubated with shaking at 37° C. Growth was scored as positive if after 8 hours the culture was visibly turbid (i.e. A600>0.2).
To test this possibility, strain CWG312 was derived by insertion of the aacC1 gene into the unique SnaBI site in the waaY coding region of F470 (FIG. 2B). The LPS from the resulting mutant migrated similarly to that of the F470 parent in sodium dodexyl sulphate-polyacrylamine gel electrophoresis (SDS-PAGE) (data not shown), precluding any significant effect of the mutation on core OS extension.

CWG296 (waaP) + pWQ909 = experiment: SDS and novobiocin sensitivity testing (MIC), complemented waaP mutant; format: cell-based, Escherichia coli; details: for resistance after introduction of multicopy waaP (in words): CWG296 with plasmid pWQ909
Protocol: as §1
Cloning and Expression of waaP for Complementation—Oligonucleotide primers for the amplification of waaP from the F470 chromosome were designed to introduce appropriate restriction sites for cloning. The forward primer (5′-TGTGGATccAAATAGTGGGCACTCA-3′)(SEQ. I.D. No. 7) introduced a BamHI site (underlined) 32 base pairs downstream of the waaP stop codon, and the complementary reverse primer (5′-GGGTGGTCcatATGGTTGAACTTAA-3′)(SEQ. I.D. No. 8) introduced an NdeI site (underlined) overlapping the waaP start codon (bases shown in lower case indicate mismatches between the primer and chromosomal sequences). The coding region for waaP alone was subsequently isolated as a BamHI-NdeI fragment, and cloned behind the arabinose-inducible PBAD promoter of the expression vector pBAD18, to generate plasmid pWQ909. L-arabinose was used at a final concentration of 0.002% to induce expression of WaaP from plasmid pWQ909.
as §2
Strain CWG296 was derived by insertion of the aacC1 gene into the unique NruI site in the waaP coding region of F470 (FIG. 2B). […]

[2] = system: CWG296 (F470 with a waaP::aacC1 insertion); experiment: SDS and novobiocin sensitivity testing (MIC), waaP mutant; format: cell-based, Escherichia coli; details: for MIC: Escherichia coli, LB, 37° C., 8 hours; for MIC / sensitivity of the mutant (in words): strain CWG296 (waaP); for increase in the susceptibility: strain CWG296 (waaP) versus F470 parent
Protocol: as §1, §2
Strain CWG296 was derived by insertion of the aacC1 gene into the unique NruI site in the waaP coding region of F470 (FIG. 2B). The resulting mutant was hypersensitive to novobiocin and SDS (Table II), as expected based on results from previous studies (Helander, I. M. et al., 1989; Parker, C. T. et al., 1992).

[3] = system: CWG297 (F470 with a waaQ::aacC1 insertion); experiment: SDS and novobiocin sensitivity testing (MIC), waaQ mutant; format: cell-based, Escherichia coli; details: for MIC / sensitivity compared with F470 (in words): strain CWG297 (waaQ) versus F470 parent
Protocol: as §1, §2
Strain CWG297 was derived by insertion of the aacC1 gene into the unique NruI site in the waaQ coding region of F470 (FIG. 2B).

E. coli F470 (parent) = experiment: SDS and novobiocin sensitivity testing (MIC), parent strain; format: cell-based; details: Escherichia coli, LB, 37° C., growth scored after 8 hours, read-out: Minimum inhibitory concentration (MIC) novobiocin
Protocol: as §1, §2

[4] = Escherichia coli, 8 h, read-out: Minimum inhibitory concentration (MIC) novobiocin

| SMILES | MIC / sensitivity compared with F470 (in words) ([1]; sulfate) | resistance after introduction of multicopy waaP (in words) (CWG296 (waaP) + pWQ909) | MIC ([2]; read-out: Minimum inhibitory concentration (MIC) SDS) | sensitivity of the mutant (in words) [2] | increase in the susceptibility [2] | MIC / sensitivity compared with F470 (in words) ([3]; sulfate) | MIC [1, 4] | MIC / sensitivity compared with F470 (in words) [1] | MIC (CWG296 (waaP) + pWQ909; Escherichia coli, strain CWG296 (waaP) + pWQ909, LB, 37° C., 8 hours, read-out: Minimum inhibitory concentration (MIC) novobiocin) | MIC ([2]; read-out: Minimum inhibitory concentration (MIC) novobiocin) | MIC [3, 4] | MIC / sensitivity compared with F470 (in words) [3] | MIC (E. coli F470 (parent)) |
| --- | --- | --- | --- | --- | --- | --- | --- | --- | --- | --- | --- | --- | --- |
| CCCCCCCCCCCCOS(=O)(=O)[O-].[Na+] [SDS, Sodium dodecyl sulfate] | slightly less than for F470; also recorded: minor increase in the sensitivity | restored wild-type levels of resistance | 100 µg/mL | hypersensitive | > 1000 fold | slightly less than for F470; also recorded: minor increase in the sensitivity | – | – | – | – | – | – | – |
| CO[C@@H]1[C@@H](OC(N)=O)[C@@H](O)[C@H](Oc2ccc3c(O)c(NC(=O)c4ccc(O)c(CC=C(C)C)c4)c(=O)oc3c2C)OC1(C)C [novobiocin] | – | restored wild-type levels of resistance | – | hypersensitive | 32 fold | – | 100 µg/mL (≈ 163 µM) | slightly less than for F470; also recorded: minor increase in the sensitivity | 100 µg/mL | 6.3 µg/mL (≈ 10.3 µM) | 100 µg/mL (≈ 163 µM) | slightly less than for F470; also recorded: minor increase in the sensitivity | 200 µg/mL (≈ 326 µM) |
